Reference: article PMC9490042 (iScience, 2022)
Structures can show the parent of a compound that is named as a salt. Where two headings read alike, the source gives them in different places.

What was measured:
Assay in all cases: steady-state tryptophan fluorescence quenching titration in PBS
Type in all cases: binding
[1] = molecular target: T1, bovine serum albumin (BSA) (Bos taurus, UniProt P02769)
[2] = molecular target: T1, bovine serum albumin (BSA); remark: listed apart in the source
[3] = molecular target: hen egg-white lysozyme (HEWL) (Gallus gallus, UniProt P00698)
Sequence of hen egg-white lysozyme (HEWL) (P00698 19-147): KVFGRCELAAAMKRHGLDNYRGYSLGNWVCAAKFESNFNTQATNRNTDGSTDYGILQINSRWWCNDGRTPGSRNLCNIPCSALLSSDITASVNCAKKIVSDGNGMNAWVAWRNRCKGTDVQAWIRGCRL

T1 sequence (P02769 25-607): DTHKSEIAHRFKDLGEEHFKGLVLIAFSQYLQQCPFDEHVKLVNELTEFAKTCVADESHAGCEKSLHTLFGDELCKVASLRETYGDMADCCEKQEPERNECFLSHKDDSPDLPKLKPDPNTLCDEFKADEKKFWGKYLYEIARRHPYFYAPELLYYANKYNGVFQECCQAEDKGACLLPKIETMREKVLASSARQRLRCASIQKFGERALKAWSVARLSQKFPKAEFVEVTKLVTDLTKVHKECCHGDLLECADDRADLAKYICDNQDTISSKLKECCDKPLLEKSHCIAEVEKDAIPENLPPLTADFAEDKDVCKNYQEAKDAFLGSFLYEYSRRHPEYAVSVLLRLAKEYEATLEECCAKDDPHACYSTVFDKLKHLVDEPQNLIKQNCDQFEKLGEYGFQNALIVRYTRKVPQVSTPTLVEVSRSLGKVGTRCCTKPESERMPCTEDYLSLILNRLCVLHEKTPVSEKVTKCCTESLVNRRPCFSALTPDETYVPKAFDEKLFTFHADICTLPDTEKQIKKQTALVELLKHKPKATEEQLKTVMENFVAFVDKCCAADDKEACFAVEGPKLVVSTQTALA

Kd [1] [µM] | Kd [2] [µM] | Kd [3] [µM] | SMILES
4.6 ± 1.1 | – | – | CCN(CC)CCCC(C)Nc1c2ccc(Cl)cc2nc2ccc(OC)cc12 (stereo not shown) [Quinacrine dihydrochloride]
– | 5.2 ± 1.2 | 1.7 ± 0.7 | Cn1cc(C2=C(c3ccc(Cl)cc3Cl)C(=O)NC2=O)c2ccccc21 [SB216763]
16.5 ± 2.5 | – | – | COc1cccc2c1C(=O)c1c(O)c3c(c(O)c1C2=O)C[C@@](O)(C(=O)CO)C[C@@H]3O[C@H]1C[C@H](N)[C@H](O)[C@H](C)O1 [Doxorubicin]
